# Source: PMC4570970 (ACS chemical biology, 2015)
# Target: T1, 5-epi-aristolochene synthase (TEAS) (Nicotiana tabacum, UniProt Q40577)
# T1 sequence (Q40577 1-548): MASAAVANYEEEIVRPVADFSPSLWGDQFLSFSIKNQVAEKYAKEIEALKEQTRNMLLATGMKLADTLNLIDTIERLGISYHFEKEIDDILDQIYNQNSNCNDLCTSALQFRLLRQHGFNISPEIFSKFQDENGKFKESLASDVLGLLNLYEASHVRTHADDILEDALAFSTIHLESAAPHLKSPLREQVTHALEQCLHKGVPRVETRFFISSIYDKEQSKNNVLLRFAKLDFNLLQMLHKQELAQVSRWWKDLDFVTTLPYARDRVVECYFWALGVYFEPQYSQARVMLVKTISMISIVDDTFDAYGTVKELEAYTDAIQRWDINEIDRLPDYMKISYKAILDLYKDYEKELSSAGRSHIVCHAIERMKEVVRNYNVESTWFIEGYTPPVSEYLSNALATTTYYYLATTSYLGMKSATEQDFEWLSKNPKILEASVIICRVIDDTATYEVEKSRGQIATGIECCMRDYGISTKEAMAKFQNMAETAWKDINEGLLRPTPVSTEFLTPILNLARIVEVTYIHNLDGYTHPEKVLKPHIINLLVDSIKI
# Assay: crystal structure
# Assay type: biochemical
smiles,measurement,value
"C/C(=C\COP(=O)(O)OP(=O)(O)O)CC/C=C(\C)CNc1ccccc1 [compound 4, AGPP]",Ki,380 nM
